In patent US7528138B2, “Pyrazolo[1,5-a]pyrimidines useful as inhibitors of protein kinases” (Vertex Pharmaceuticals Incorporated, priority 2004, dated 2009):

How the values were obtained:
c-Met = c-Met (Homo sapiens, UniProt P08581); assay: c-Met Inhibition Assay, coupled enzyme system; assay type: biochemical; conditions: enzyme inhibition data (Ki), Table 11
Procedure, shortened: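 Pyruvate kinase/lactate dehydrogenase-coupled NADH assay in HEPES pH 7.5 with 80 nM c-Met, 200 μM ATP and 10 μM polyGluTyr at 30° C. Compound (0.006–12.5 μM final, 12-point) preincubated 10 min before ATP start; rates over 10 min gave Ki.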

JAK3 = target: T1, JAK3 (Homo sapiens, UniProt P52333); assay: JAK3 Inhibition Assay, 33P incorporation; assay type: biochemical; conditions: enzyme inhibition data (Ki), Table 11
T1 sequence (P52333 1-1124): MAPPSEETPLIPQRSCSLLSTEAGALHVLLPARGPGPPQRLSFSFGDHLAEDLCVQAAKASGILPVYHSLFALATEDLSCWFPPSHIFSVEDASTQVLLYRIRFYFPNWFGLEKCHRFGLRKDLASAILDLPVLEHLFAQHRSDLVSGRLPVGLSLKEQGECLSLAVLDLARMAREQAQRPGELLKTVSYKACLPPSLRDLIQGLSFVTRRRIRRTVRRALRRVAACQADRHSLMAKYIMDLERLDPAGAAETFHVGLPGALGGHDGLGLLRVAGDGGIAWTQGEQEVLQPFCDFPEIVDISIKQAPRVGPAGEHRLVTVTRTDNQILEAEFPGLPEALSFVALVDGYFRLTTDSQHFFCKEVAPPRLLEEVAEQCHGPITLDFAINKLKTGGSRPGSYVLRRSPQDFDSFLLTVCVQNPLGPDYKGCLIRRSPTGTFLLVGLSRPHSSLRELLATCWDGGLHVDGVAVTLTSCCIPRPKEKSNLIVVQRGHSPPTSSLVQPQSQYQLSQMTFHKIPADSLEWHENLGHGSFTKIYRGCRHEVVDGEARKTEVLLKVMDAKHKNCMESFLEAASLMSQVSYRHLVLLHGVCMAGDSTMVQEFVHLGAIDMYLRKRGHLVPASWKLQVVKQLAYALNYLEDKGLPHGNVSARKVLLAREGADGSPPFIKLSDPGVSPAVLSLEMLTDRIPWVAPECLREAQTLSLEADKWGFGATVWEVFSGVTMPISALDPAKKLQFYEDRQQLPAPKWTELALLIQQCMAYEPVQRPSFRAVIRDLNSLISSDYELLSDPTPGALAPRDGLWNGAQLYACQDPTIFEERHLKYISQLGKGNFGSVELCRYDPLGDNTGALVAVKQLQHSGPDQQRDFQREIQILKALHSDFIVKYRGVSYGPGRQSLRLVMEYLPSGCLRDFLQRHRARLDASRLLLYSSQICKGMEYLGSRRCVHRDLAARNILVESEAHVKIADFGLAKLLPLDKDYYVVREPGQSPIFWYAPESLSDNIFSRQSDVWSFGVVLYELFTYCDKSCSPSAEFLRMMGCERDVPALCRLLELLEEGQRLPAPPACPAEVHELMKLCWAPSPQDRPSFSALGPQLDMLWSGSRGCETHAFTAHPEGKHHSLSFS
Procedure, shortened: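 Recombinant JAK3 at 1 nM in HEPES pH 7.4 buffer with 10 mM MgCl2, 1 mM DTT and 0.01% BSA. Substrates were 5 μM ATP (200 uCi/μmole) and 1 μM poly(Glu)4Tyr, reacted 20 min at 25 °C. Stopped with TCA, and 33P incorporation counted on glass fiber filters.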

Sequence of c-Met (P08581 25-1390): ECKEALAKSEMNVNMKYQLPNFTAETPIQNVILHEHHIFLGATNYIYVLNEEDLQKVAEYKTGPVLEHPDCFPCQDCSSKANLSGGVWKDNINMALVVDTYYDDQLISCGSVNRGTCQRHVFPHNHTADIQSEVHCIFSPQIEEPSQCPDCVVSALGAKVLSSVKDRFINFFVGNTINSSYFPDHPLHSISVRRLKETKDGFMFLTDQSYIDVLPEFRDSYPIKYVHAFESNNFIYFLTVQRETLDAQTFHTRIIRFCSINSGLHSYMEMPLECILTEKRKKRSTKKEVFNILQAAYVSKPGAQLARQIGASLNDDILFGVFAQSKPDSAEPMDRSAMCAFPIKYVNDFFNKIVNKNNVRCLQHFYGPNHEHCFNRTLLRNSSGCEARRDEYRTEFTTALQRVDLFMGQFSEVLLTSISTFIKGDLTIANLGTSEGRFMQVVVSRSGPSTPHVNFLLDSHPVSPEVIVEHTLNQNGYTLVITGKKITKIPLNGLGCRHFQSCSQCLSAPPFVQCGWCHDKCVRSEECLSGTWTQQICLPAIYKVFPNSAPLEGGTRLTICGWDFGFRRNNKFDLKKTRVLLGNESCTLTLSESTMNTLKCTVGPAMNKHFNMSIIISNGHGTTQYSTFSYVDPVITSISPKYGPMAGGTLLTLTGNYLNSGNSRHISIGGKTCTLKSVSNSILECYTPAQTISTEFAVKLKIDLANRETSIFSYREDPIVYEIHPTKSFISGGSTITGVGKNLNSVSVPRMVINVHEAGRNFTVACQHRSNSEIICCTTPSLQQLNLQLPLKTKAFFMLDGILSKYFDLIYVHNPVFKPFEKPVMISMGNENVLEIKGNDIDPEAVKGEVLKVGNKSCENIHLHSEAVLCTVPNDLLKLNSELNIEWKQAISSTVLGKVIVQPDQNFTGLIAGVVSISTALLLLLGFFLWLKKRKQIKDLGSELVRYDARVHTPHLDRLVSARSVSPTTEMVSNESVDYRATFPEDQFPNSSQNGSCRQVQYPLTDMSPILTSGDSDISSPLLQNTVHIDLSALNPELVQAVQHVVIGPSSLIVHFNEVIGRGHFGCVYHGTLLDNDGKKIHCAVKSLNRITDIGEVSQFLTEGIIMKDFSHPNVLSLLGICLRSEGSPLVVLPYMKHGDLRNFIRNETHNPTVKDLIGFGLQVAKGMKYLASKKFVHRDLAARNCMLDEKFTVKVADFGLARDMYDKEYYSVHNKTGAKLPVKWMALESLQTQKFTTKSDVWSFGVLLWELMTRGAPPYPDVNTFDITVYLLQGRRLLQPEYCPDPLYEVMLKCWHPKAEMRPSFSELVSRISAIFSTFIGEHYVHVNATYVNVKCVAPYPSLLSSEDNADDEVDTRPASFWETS

Structure (SMILES) | Ki (c-Met) [nM] | Ki (JAK3) [nM]
Nc1nn2cc(-c3ccc(CN4CC[C@H](N)C4)cc3)cnc2c1-c1ccccn1 [Compound V-233] | < 500 | 500 to 5000
Nc1nn2cc(-c3ccc(CN4CC[C@@H](N)C4)cc3)cnc2c1-c1ccccn1 [Compound V-231] | < 500 | 500 to 5000
CC(C)(O)C#Cc1cnc2c(-c3ccccn3)c(N)nn2c1 [Compound V-237] | < 500 | 500 to 5000
Nc1nn2cc(-c3ccc(N4CCNCC4)nc3)cnc2c1-c1ccccn1 [Compound V-151] | < 500 | > 5000
Cc1cccnc1-c1c(N)nn2cc(-c3ccncc3)cnc12 [Compound V-135] | 500 to 5000 | > 5000
Cc1cccc(-c2c(N)nn3cc(-c4ccncc4)cnc23)n1 [Compound V-178] | 500 to 5000 | > 5000
Nc1nn2cc(-c3ccc(CN4CCNCC4)cc3)cnc2c1-c1ccccn1 [Compound V-217] | < 500 | 500 to 5000
CNCCCN(C)Cc1ccc(-c2cnc3c(-c4ccccn4)c(N)nn3c2)cc1 [Compound V-230] | < 500 | 500 to 5000
Nc1nn2cc(-c3ccc(C(=O)NC4CCCO4)cn3)cnc2c1-c1ccccn1 (centres unmarked) [Compound V-96] | < 500 | > 5000
Nc1nn2cc(-c3cccc(C(=O)N4CCCC4CO)n3)cnc2c1-c1ccccn1 (centres unmarked) [Compound V-112] | < 500 | > 5000
NCc1cccc(-c2cnc3c(-c4ccccn4)c(N)nn3c2)c1 [Compound V-202] | < 500 | > 5000
Nc1nn2cc(C(=O)NC3CCCNC3)cnc2c1-c1ccccn1 (centres unmarked) [Compound V-206] | 500 to 5000 | > 5000
Cc1ccnc(-c2c(N)nn3cc(-c4ccncc4)cnc23)c1 [Compound V-133] | < 500 | 500 to 5000
Nc1nn2cc(-c3ccc(N4CCC[C@H]4CN4CCCC4)nc3)cnc2c1-c1ccccn1 [Compound V-152] | < 500 | > 5000
Nc1nn2cc(-c3cccc(C(=O)N4CCC[C@H]4CN4CCCC4)n3)cnc2c1-c1ccccn1 [Compound V-154] | < 500 | > 5000
COc1ccc(-c2cnc3c(-c4ccncc4)c(N)nn3c2)cc1 [Compound V-219] | 500 to 5000 | > 5000
CCN(CCC#N)C(=O)c1cccc(-c2cnc3c(-c4ccccn4)c(N)nn3c2)n1 [Compound V-116] | < 500 | > 5000
CCN1CCN(c2ccc(-c3cnc4c(-c5ccccn5)c(N)nn4c3)cn2)CC1 [Compound V-166] | < 500 | > 5000
CC(C)CN(C)C(=O)c1ccc(-c2cnc3c(-c4ccccn4)c(N)nn3c2)nc1 [Compound V-97] | < 500 | 500 to 5000
CCCN(CC)c1cc(-c2c(N)nn3cc(-c4ccncc4)cnc23)ncn1 [Compound V-244] | < 500 | < 500
CNCCCN(C)C(=O)c1ccc(-c2cnc3c(-c4ccccn4)c(N)nn3c2)cc1 [Compound V-191] | < 500 | 500 to 5000
CN(C)CCN(C)C(=O)c1ccc(-c2cnc3c(-c4ccccn4)c(N)nn3c2)cc1 [Compound V-188] | < 500 | 500 to 5000
NC1CCN(Cc2cccc(C3=CN4NC(N)C(c5ccccn5)=C4N=C3)c2)CC1 (centres unmarked) [Compound V-229] | < 500 | > 5000
CS(=O)(=O)Nc1cccc(-c2cnc3c(-c4ccccn4)c(N)nn3c2)c1 [Compound V-18] | < 500 | > 5000
CN(CCCN)C(=O)c1cccc(-c2cnc3c(-c4ccccn4)c(N)nn3c2)n1 [Compound V-155] | < 500 | 500 to 5000
